Measurements taken from patent US20240132498A1, “CRYSTALLINE FORMS OF 5-(3,4-DIFLUOROBENZYL)-8-((1R,4R)-4-METHYLCYCLOHEXYL)-6,9-DIOXO-2,5,8-TRIAZASPIRO[3.5]NONANE-2-CARBALDEHYDE” (Cytokinetics, Incorporated, priority 2022, published 2024).
Values after ≈ are worked out from the molar mass of the structure shown. “Also recorded” adds a separate entry of the source. Like-named read-outs stand apart in the source and are kept apart here.

Assays:
Format in all cases: physicochemical
[1] = Kinetic solubility of crystalline Form II in solvents; conditions: for solubility at 4 h: 25 °C, thermodynamic from solid; for Solubility: 25° C., 4 hours
Method: The solubility of crystalline Form II was analyzed with 15 types of common solvents. Sufficient amount of Form II was suspended in 0.5 mL solvent for a maximum anticipated concentration of Ca. =10-100 mg/ml of the free Form II. The resulting suspensions were then shaken in a platform shaker at 25° C./ 750 rpm for 4 hours. After equilibration, the appearance was recorded, and the pH of the saturated solution was measured for aqueous samples only. Samples were then centrifuged for 5 minutes at 13.4 krpm before dilution with MeCN except for the samples that were initially diluted in n-heptane, which were then diluted in 2-propanol rather than MeCN.
All diluted samples were then analyzed by HPLC. Samples were further diluted based on appearance and the maximum anticipated concentration […]. All diluted samples were injected at 10, 15 and 20 piL to obtain peak areas within the calibration curve as a diluted concentration of Ca. 0.1 mg/ml was trying to be achieved.
Quantitation was measured by HPLC with reference to a standard solution of approximately 0.15 mg/ml in MeCN. Different volumes of the standard diluted and undiluted sample solutions were injected. The solubility was calculated using the peak areas determined by integration of the peak found at the same retention time as the principal peak in the standard injection.

[2] = Stability of Form II in solvents after 24 hours (HPLC); conditions: for Form II Peak Area T = 24 hours: 24 hours at ambient (25° C.); for Form II Peak Area: initial injection; for Visual Observations (signs of degradation in chromatograms): initial vs T = 24 hours;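 as to Form II Peak Area T = 24 hours: same diluted solubility sample reinjected at the initial injection volume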
Description: The chromatograms were then overlayed and visual signs of degradation were noted, i.e., loss of compound 1 peak area or increase of other peaks in the chromatography.

[3] = Competitive slurry experiments between Form I and Form II; conditions: competitive slurries of a mechanical mixture of Form I and Form II, range of temperatures (5-50)
Description: The results of the competitive slurry experiments are provided below in Table 6.

C[C@H]1CC[C@H](N2CC(=O)N(Cc3ccc(F)c(F)c3)C3(CN(C=O)C3)C2=O)CC1 [Form II, 5-(3,4-difluorobenzyl)-8-((1r,4r)-4-methylcyclohexyl)-6,9-dioxo-2,5,8-triazaspiro[3.5]nonane-2-carbaldehyde]
solubility at 4 h ([1]; 2-BuOH, organic solvent or mixture, 2-BuOH, read-out: Average Solubility): 11 mg/mL (≈ 27.1 mM)
solubility at 4 h ([1]; 2-BuOH, organic solvent or mixture, 2-BuOH, single replicate, read-out: Solubility): 11 mg/mL (≈ 27.1 mM)
solubility at 4 h ([1]; 2-Me-THF, organic solvent or mixture, 2-Me-THF, read-out: Average Solubility): 24 mg/mL (≈ 59.2 mM)
solubility at 4 h ([1]; 2-Me-THF, organic solvent or mixture, 2-Me-THF, single replicate, read-out: Solubility): 24 mg/mL (≈ 59.2 mM)
solubility at 4 h ([1]; Acetone, organic solvent or mixture, Acetone, single replicate, read-out: Solubility): > 101 mg/mL
solubility at 4 h ([1]; DI Water, pH 8.7, water, DI Water, final pH 8.7, read-out: Average Solubility): ~0.41 mg/mL (≈ 1.01 mM)
solubility at 4 h ([1]; DI Water, pH 8.7, water, DI Water, final pH 8.7, single replicate, read-out: Solubility): 0.5 mg/mL (≈ 1.23 mM)
Solubility ([1]; DI Water, final pH 8.7, single replicate): 0.31 mg/mL (≈ 0.765 mM)
solubility at 4 h ([1]; DMSO, organic solvent or mixture, DMSO, read-out: Average Solubility): > 100 mg/mL
solubility at 4 h ([1]; DMSO, organic solvent or mixture, DMSO, single replicate, read-out: Solubility): > 101 mg/mL
Solubility ([1]; DMSO, single replicate): >101.2 mg/mL
solubility at 4 h ([1]; EtOH, organic solvent or mixture, EtOH, read-out: Average Solubility): ~24 mg/mL (≈ 59.2 mM)
solubility at 4 h ([1]; EtOH, organic solvent or mixture, EtOH, single replicate, read-out: Solubility): 25 mg/mL (≈ 61.7 mM)
Solubility ([1]; EtOH, single replicate): 23 mg/mL (≈ 56.7 mM)
solubility at 4 h ([1]; IPA, organic solvent or mixture, IPA, read-out: Average Solubility): 9.8 mg/mL (≈ 24.2 mM)
solubility at 4 h ([1]; IPA, organic solvent or mixture, IPA, single replicate, read-out: Solubility): 9.8 mg/mL (≈ 24.2 mM)
solubility at 4 h ([1]; Isopropyl acetate, organic solvent or mixture, Isopropyl acetate, single replicate, read-out: Solubility): 22 mg/mL (≈ 54.3 mM)
solubility at 4 h ([1]; MIBK, organic solvent or mixture, MIBK, read-out: Average Solubility): 39 mg/mL (≈ 96.2 mM)
solubility at 4 h ([1]; MIBK, organic solvent or mixture, MIBK, single replicate, read-out: Solubility): 39 mg/mL (≈ 96.2 mM)
solubility at 4 h ([1]; MeCN, organic solvent or mixture, MeCN, read-out: Average Solubility): > 100 mg/mL
solubility at 4 h ([1]; MeCN, organic solvent or mixture, MeCN, single replicate, read-out: Solubility): > 101 mg/mL
Solubility ([1]; MeCN, single replicate): >100.6 mg/mL
solubility at 4 h ([1]; MeOH, organic solvent or mixture, MeOH, read-out: Average Solubility): > 100 mg/mL
solubility at 4 h ([1]; MeOH, organic solvent or mixture, MeOH, single replicate, read-out: Solubility): > 100 mg/mL
Solubility ([1]; MeOH, single replicate): >100.6 mg/mL
solubility at 4 h ([1]; THF, organic solvent or mixture, THF, read-out: Average Solubility): > 100 mg/mL
solubility at 4 h ([1]; THF, organic solvent or mixture, THF, single replicate, read-out: Solubility): > 102 mg/mL
Solubility ([1]; THF, single replicate): >101.2 mg/mL
solubility at 4 h ([1]; Tert-Butylmethyl ether, organic solvent or mixture, Tert-Butylmethyl ether, read-out: Average Solubility): 1.12 mg/mL (≈ 2.76 mM)
solubility at 4 h ([1]; Tert-Butylmethyl ether, organic solvent or mixture, Tert-Butylmethyl ether, single replicate, read-out: Solubility): 1.12 mg/mL (≈ 2.76 mM)
solubility at 4 h ([1]; Toluene, organic solvent or mixture, Toluene, read-out: Average Solubility): 9.6 mg/mL (≈ 23.7 mM)
solubility at 4 h ([1]; Toluene, organic solvent or mixture, Toluene, single replicate, read-out: Solubility): 9.5 mg/mL (≈ 23.4 mM)
Solubility ([1]; Toluene, single replicate): 9.6 mg/mL (≈ 23.7 mM)
solubility at 4 h ([1]; acetone, organic solvent or mixture, Acetone, read-out: Average Solubility): > 100 mg/mL
solubility at 4 h ([1]; isopropyl acetate, organic solvent or mixture, Isopropyl acetate, read-out: Average Solubility): 22 mg/mL (≈ 54.3 mM)
Form II Peak Area T = 24 hours ([2]; 2-BuOH): 35.2
Form II Peak Area ([2]; 2-BuOH): 35.3
Visual Observations (signs of degradation in chromatograms) ([2]; 2-BuOH): No sign of degradation
Form II Peak Area T = 24 hours ([2]; 2-Me-THF): 51.5
Form II Peak Area ([2]; 2-Me-THF): 51.7
Visual Observations (signs of degradation in chromatograms) ([2]; 2-Me-THF): No sign of degradation
Form II Peak Area T = 24 hours ([2]; Acetone): 167.7
Form II Peak Area ([2]; Acetone): 166.0
Visual Observations (signs of degradation in chromatograms) ([2]; Acetone): no visual signs of further degradation; also recorded: No sign of degradation
Form II Peak Area T = 24 hours ([2]; DI Water): 10.8
Form II Peak Area ([2]; DI Water): 10.8
Visual Observations (signs of degradation in chromatograms) ([2]; DI Water): No sign of degradation
Form II Peak Area T = 24 hours ([2]; DMSO): 194.2
Form II Peak Area ([2]; DMSO): 193.2
Visual Observations (signs of degradation in chromatograms) ([2]; DMSO): no visual signs of further degradation; also recorded: No sign of degradation
Form II Peak Area T = 24 hours ([2]; EtOH): 54.7
Form II Peak Area ([2]; EtOH): 53.1
Visual Observations (signs of degradation in chromatograms) ([2]; EtOH): did not appear to degrade further; also recorded: Late eluting impurity peak, present
Form II Peak Area T = 24 hours ([2]; IPA): 30.5
Form II Peak Area ([2]; IPA): 30.3
Visual Observations (signs of degradation in chromatograms) ([2]; IPA): No sign of degradation
Form II Peak Area T = 24 hours ([2]; Isopropyl acetate): 66.3
Form II Peak Area ([2]; Isopropyl acetate): 66.6
Visual Observations (signs of degradation in chromatograms) ([2]; Isopropyl acetate): did not seem to degrade further; also recorded: Impurities eluting after compound 1
Form II Peak Area T = 24 hours ([2]; MIBK): 85.1
Form II Peak Area ([2]; MIBK): 85.1
Visual Observations (signs of degradation in chromatograms) ([2]; MIBK): No sign of degradation
Form II Peak Area T = 24 hours ([2]; MeCN): 190.4
Form II Peak Area ([2]; MeCN): 188.0
Visual Observations (signs of degradation in chromatograms) ([2]; MeCN): no visual signs of further degradation; also recorded: No sign of degradation
Form II Peak Area T = 24 hours ([2]; MeOH): 202.1
Form II Peak Area ([2]; MeOH): 199.0
Visual Observations (signs of degradation in chromatograms) ([2]; MeOH): no visual signs of further degradation; also recorded: No sign of degradation
Form II Peak Area T = 24 hours ([2]; THF): 177.4
Form II Peak Area ([2]; THF): 177.3
Visual Observations (signs of degradation in chromatograms) ([2]; THF): no visual signs of further degradation; also recorded: No sign of degradation
Form II Peak Area T = 24 hours ([2]; Tert-Butylmetyl ether): 24.7
Form II Peak Area ([2]; Tert-Butylmetyl ether): 24.2
Visual Observations (signs of degradation in chromatograms) ([2]; Tert-Butylmetyl ether): Large impurity peak eluting after
Form II Peak Area T = 24 hours ([2]; Toluene): 40.5
Form II Peak Area ([2]; Toluene): 41.2
Visual Observations (signs of degradation in chromatograms) ([2]; Toluene): No sign of degradation
relative thermodynamic stability of Form I and Form II [3]: most stable form
